What was measured:
CD34^+CD38^− cells = assay: Expansion of CD34+CD38- cells using human cord blood-derived CD34+ cells (Assay Example 1); assay type: cell-based; details: for Comparison with TPO: 3 μg/mL compound vs TPO 10 ng/mL, CD34^+CD38^− cells; for Expansion efficiency (CD34^+CD38^− cells): 100 ng/mL SCF, 7 days, based on the number of CD34^+CD38^− cells in the absence of compound
Protocol: (§1) Human cord blood-derived CD34^+ cells were purchased from Lonza and plated on a 24-well plate (Corning) (10000 cells/1 mL/well). As the culture medium, StemSpan SFEM (StemCell Technologies) containing 100 ng/mL SCF (Wako Pure Chemical Industries) was used, and one of Compounds No. 1 to 72 dissolved in dimethyl sulfoxide was added in an amount of 0.1% (v/v) to a final concentration of 1 or 3 μg/mL. As a positive control, TPO (PeproTech) was used at a final concentration of 10 ng/mL.
(§2) After the cells were incubated in liquid culture at 37° C. for 7 days in a CO2 incubator (5% CO2), the number of viable cells was counted by trypan blue assay. The number of CD34^+CD38^− cells was calculated as follows. After the incubation, the cells in the liquid culture was stained with a CD34 antibody (APC, Becton, Dickinson and Company) and a CD38 antibody (PE, Becton, Dickinson and Company), then washed with PBS(−) containing 2% (v/v) FBS and stained with propidium iodide (Sigma-Aldrich Japan) added to a final concentration of 5 μg/mL. The stained cells were analyzed with a BD FACSCANTO™ II flow cytometer (Becton, Dickinson and Company) to determined the proportions of CD34^+ cells and CD34^+CD38^− cells, which was multiplied by the number of viable cells to calculate the numbers of CD34^+ cells and CD34^+CD38^− cells.
(§3) The expansion efficiencies in the presence of 1 or 3 μg/mL of compounds based on the number of CD34^+ cells in the absence of them are shown in Tables 3-1 and 3-2 on a scale of A for expansion efficiencies of 6 or greater, B for expansion efficiencies of at least 4 and less than 6, and C for expansion efficiencies of at least 2 and less than 4. The expansion efficiencies in the presence of 1 or 3 μg/mL of compounds based on the number of CD34^+CD38^− cells in the absence of them are shown in Tables 4-1 and 4-2 on a scale of A for expansion efficiencies of 10 or greater, B for expansion efficiencies of at least 5 and less than 10, and C for expansion efficiencies of at least 3 and less than 5. Further, in Table 3, the compounds with an expansion efficiency twice or more greater than that of TPO are marked with O.

HPP-CFC colonies = assay: Expansion of HPP-CFU, blood cell colony forming assay (Assay Example 3); assay type: cell-based, human; details: cells cultured with 3 μg/mL compound, 500 cells/dish, 12 days; None = 6
Protocol: The effects of Compounds No. 60 and No. 61 of the present invention on hematopoietic progenitor cells were measured by blood cell colony forming assay. The liquid cell cultures obtained in the presence of Compounds No. 60 or No. 61 at a final concentration of 3 μg/mL in the same manner as in Assay Example 1 were poured into 3.5-cm Petri dishes with MethoCult GF H4435 culture medium (StemCell Technologies) at 500 cells/dish and incubated in a CO2 incubator (5% CO2, 37° C.) for 12 days. The number of HPP-CFC colonies in each plate was counted under a microscope routinely. The assay was carried out at least in triplicate, and the numbers of HPP-CFC colonies were averaged.

CD34^+ cells = assay: Expansion of CD34+ cells using human cord blood-derived CD34+ cells (Assay Example 1); assay type: cell-based; details: 100 ng/mL SCF, 7 days, based on the number of CD34^+ cells in the absence of compound
Protocol: as §1, §2, §3

SRC = assay: Transplantation of cell culture into immunodeficient (NOD/SCID) mice, SRC assay (Assay Example 4); assay type: in vivo; details: CD34^+ cells cultured 1 week with 3 μg/mL Compound No. 60, SCF and Flt-3, 8 weeks after transplantation, vs uncultured CD34^+ cells, FIG. 2
Protocol: Human cord blood-derived CD34^+ cells were cultured for 1 week in StemSpan SFEM (StemCell Technologies) containing SCF (Peprotech) at a final concentration of 100 ng/mL and Flt-3 (Wako Pure Chemical Industries) at a final concentration of 100 ng/mL in the presence of TPO (Peprotech) at a final concentration of 20 ng/mL or Compound No. 60 at a final concentration of 3 μg/mL in the same manner as in Assay Example 1. The cell culture were transplanted into at least five 7- to 8-week-old NOD/SCID mice by tail vein injection at 4×10^4 cells/mouse in terms of the initial number of CD34^+ cells after a sublethal dose of irradiation (2.5 Gy). Eight weeks after the transplantation, the mice were killed, and the bone marrow cells were collected from both thighbones. Subsequently, the bone marrow cells were stained with a human CD45 antibody (APC, Becton, Dickinson and Company), then washed with PBS(−) containing 2% (v/v) FBS and stained with propidium iodide (Sigma-Aldrich Japan) added to a final concentration of 5 μg/mL. The stained cells were analyzed with a flow cytometry to determined the proportion of human CD45^+ cells in the bone marrow cells. […]

Compound | Comparison with TPO (CD34^+CD38^− cells) | Expansion efficiency (CD34^+CD38^− cells) (CD34^+CD38^− cells; 3 μg/mL compound) | Number of HPP-CFC colonies (HPP-CFC colonies) | Expansion efficiency (CD34^+ cells) (CD34^+ cells; 3 μg/mL compound) | SRC expanding effect (proportion of human CD45^+ cells in bone marrow) (SRC) | Expansion efficiency (CD34^+CD38^− cells) (CD34^+CD38^− cells; 1 μg/mL compound) | Expansion efficiency (CD34^+ cells) (CD34^+ cells; 1 μg/mL compound)
CC(=NNC(=O)c1ccc(C(=O)NCc2ccc(C(=O)NCCOCCO)cc2)s1)c1csc(-c2ccc(Br)cc2)c1O [compound 61] | ∘ | A (A for expansion efficiencies of 10 or greater) | 14 | A (A for expansion efficiencies of 6 or greater) |  |  | 
CC(=NNC(=O)c1ccc(C(=O)NCc2ccc(C(=O)NCCOCCO)cc2)s1)c1csc(-c2ccc(C(C)(C)C)cc2)c1O [Compound No. 60] | ∘ | A (A for expansion efficiencies of 10 or greater) | 25 | B (B for expansion efficiencies of at least 4 and less than 6) | excellent SRC expanding effect |  | 
CC(=NNC(=O)c1ccc(C(=O)NCc2ccc(C(=O)NCCO)cc2)s1)c1csc(-c2ccc(C(C)(C)C)cc2)c1O [compound 14] |  |  |  |  |  | A (A for expansion efficiencies of 10 or greater) | A (A for expansion efficiencies of 6 or greater)
CC(=NNC(=O)c1ccc(C(=O)NCc2ccc(CC(N)=O)cc2)s1)c1csc(-c2ccc(Cl)cc2)c1O [compound 70] | ∘ | A (A for expansion efficiencies of 10 or greater) |  | A (A for expansion efficiencies of 6 or greater) |  |  | 
CC(=NNC(=O)c1ccc(C(=O)NCc2ccc(C(=O)NCCN3CCOCC3)cc2)s1)c1csc(-c2ccc(C(C)(C)C)cc2)c1O [compound 20] | ∘ | A (A for expansion efficiencies of 10 or greater) |  | B (B for expansion efficiencies of at least 4 and less than 6) |  |  | 
CC(=O)NCc1ccc(CNC(=O)c2ccc(C(=O)NN=C(C)c3csc(-c4ccc(OC(F)(F)F)cc4)c3O)s2)cc1 [compound 57] |  | A (A for expansion efficiencies of 10 or greater) |  | B (B for expansion efficiencies of at least 4 and less than 6) |  |  | 
CC(=NNC(=O)c1ccc(C(=O)NCc2ccc(S(=O)(=O)NCCOCCO)cc2)s1)c1csc(-c2ccc(Br)cc2)c1O [compound 3] |  | A (A for expansion efficiencies of 10 or greater) |  | C (C for expansion efficiencies of at least 2 and less than 4) |  |  | 
C/C(=N\NC(=O)c1ccc(C(=O)NCc2ccc(S(=O)(=O)NCCOCCO)cc2)s1)c1csc(-c2ccc(Cl)c(Cl)c2)c1O [compound 1] |  | A (A for expansion efficiencies of 10 or greater) |  | C (C for expansion efficiencies of at least 2 and less than 4) |  |  | 
COc1ccc(-c2scc(C(C)=NNC(=O)c3ccc(C(=O)NCc4ccc(CNC(C)=O)cc4)s3)c2O)cc1 [compound 58] |  |  |  |  |  | A (A for expansion efficiencies of 10 or greater) | B (B for expansion efficiencies of at least 4 and less than 6)
